Measurements from ChEMBL document CHEMBL1153280, “Synthesis and in vitro activity of dicationic bis-benzimidazoles as a new class of anti-MRSA and anti-VRE agents” (2009).
≈ marks a conversion by molar mass, not a printed value.

Legend:
Assay type in all cases: functional
Bacillus subtilis = assay: Antibacterial activity against Bacillus subtilis ATCC 23857 by NCCLS method
Enterococcus faecium = assay: Antibacterial activity against vancomycin-resistant Enterococcus faecium ATCC 700221 by NCCLS method
Clostridium perfringens = assay: Antibacterial activity against Clostridium perfringens ATCC 10388 by NCCLS method
Bacteroides fragilis = assay: Antibacterial activity against Bacteroides fragilis ATCC 23745 by NCCLS method
Staphylococcus aureus [1] = assay: Antibacterial activity against methicillin-resistant Staphylococcus aureus ATCC 33591 by NCCLS method
Streptococcus pneumoniae = assay: Antibacterial activity against Streptococcus pneumoniae ATCC 6301 by NCCLS method
Staphylococcus aureus [2] = assay: Antibacterial activity against multidrug-resistant Staphylococcus aureus BAA-39 by NCCLS method
[3] = tested on: Staphylococcus epidermidis; assay: Antibacterial activity against Staphylococcus epidermidis ATCC 12228 by NCCLS method
Enterococcus faecalis = assay: Antibacterial activity against vancomycin-resistant Enterococcus faecalis ATCC 51575 by NCCLS method
Bacillus cereus = assay: Antibacterial activity against Bacillus cereus ATCC 11778 by NCCLS method
[4] = tested on: Staphylococcus epidermidis; assay: Antibacterial activity against methicillin-resistant Staphylococcus epidermidis ATCC 51625 by NCCLS method
Staphylococcus aureus [5] = assay: Antibacterial activity against Staphylococcus aureus ATCC 29213 by NCCLS method

For CCC(C)NC(=N)c1ccc2[nH]c(-c3ccc(CCc4ccc(-c5nc6cc(C(=N)NC(C)CC)ccc6[nH]5)cc4)cc3)nc2c1 (configuration not stated), which MIC (Bacillus subtilis) is on record?
Its MIC is 0.25 µg/mL (≈ 0.409 µM).

And the MIC (Enterococcus faecium)?
The MIC was 0.5 µg/mL (≈ 0.819 µM).

What about the MIC (Clostridium perfringens) of the same molecule?
Its MIC is 0.5 µg/mL (≈ 0.819 µM).

And the MIC (Bacteroides fragilis)?
Its MIC is 2 µg/mL (≈ 3.27 µM).

What about the MIC (Staphylococcus aureus [1]) of the same molecule?
Its MIC is 0.25 µg/mL (≈ 0.409 µM).

And the MIC (Streptococcus pneumoniae)?
The MIC was 0.12 µg/mL (≈ 0.196 µM).

And the MIC (Staphylococcus aureus [2])?
The MIC was 0.5 µg/mL (≈ 0.819 µM).

What about the MIC [3] of the same molecule?
Its MIC is under 0.06 µg/mL.

And the MIC (Enterococcus faecalis)?
The MIC was 2 µg/mL (≈ 3.27 µM).

What about the MIC (Bacillus cereus) of the same molecule?
The MIC was 0.5 µg/mL (≈ 0.819 µM).

What about the MIC [4] of the same molecule?
The MIC was 0.12 µg/mL (≈ 0.196 µM).

What about the MIC (Staphylococcus aureus [5]) of the same molecule?
Its MIC is 1 µg/mL (≈ 1.64 µM).

What does the source list for N=C(c1ccc2[nH]c(-c3ccc(CCc4ccc(-c5nc6cc(C(=N)N7CCCC7)ccc6[nH]5)cc4)cc3)nc2c1)N1CCCC1?
MIC (Bacillus subtilis): 2 µg/mL (≈ 3.3 µM); MIC (Enterococcus faecium): 2 µg/mL (≈ 3.3 µM); MIC (Clostridium perfringens): 2 µg/mL (≈ 3.3 µM); MIC (Bacteroides fragilis): 2 µg/mL (≈ 3.3 µM); MIC (Staphylococcus aureus [1]): 0.25 µg/mL (≈ 0.412 µM); MIC (Streptococcus pneumoniae): > 32 µg/mL; MIC (Staphylococcus aureus [2]): 0.5 µg/mL (≈ 0.824 µM); MIC [3]: 0.25 µg/mL (≈ 0.412 µM); MIC (Enterococcus faecalis): 16 µg/mL (≈ 26.4 µM); MIC (Bacillus cereus): 1 µg/mL (≈ 1.65 µM); MIC [4]: 0.25 µg/mL (≈ 0.412 µM); MIC (Staphylococcus aureus [5]): 0.5 µg/mL (≈ 0.824 µM)

With N=C(NC1CCCC1)c1ccc2[nH]c(-c3ccc(CCc4ccc(-c5nc6cc(C(=N)NC7CCCC7)ccc6[nH]5)cc4)cc3)nc2c1 as the molecule, how does the MIC (Bacillus subtilis) read?
Its MIC is 1 µg/mL (≈ 1.58 µM).

And the MIC (Enterococcus faecium)?
Its MIC is 0.25 µg/mL (≈ 0.394 µM).

What about the MIC (Clostridium perfringens) of the same molecule?
The MIC was 4 µg/mL (≈ 6.3 µM).

And the MIC (Bacteroides fragilis)?
Its MIC is over 32 µg/mL.

What about the MIC (Staphylococcus aureus [1]) of the same molecule?
Its MIC is 0.5 µg/mL (≈ 0.788 µM).

What about the MIC (Streptococcus pneumoniae) of the same molecule?
The MIC was 0.25 µg/mL (≈ 0.394 µM).

What about the MIC (Staphylococcus aureus [2]) of the same molecule?
The MIC was 1 µg/mL (≈ 1.58 µM).

And the MIC [3]?
The MIC was under 0.06 µg/mL.

What about the MIC (Enterococcus faecalis) of the same molecule?
Its MIC is 2 µg/mL (≈ 3.15 µM).

What about the MIC (Bacillus cereus) of the same molecule?
The MIC was 0.5 µg/mL (≈ 0.788 µM).

What about the MIC [4] of the same molecule?
The MIC was 0.12 µg/mL (≈ 0.189 µM).

What about the MIC (Staphylococcus aureus [5]) of the same molecule?
Its MIC is 1 µg/mL (≈ 1.58 µM).

CC(C)NC(=N)c1ccc2[nH]c(-c3ccc(CCc4ccc(-c5nc6ccccc6[nH]5)cc4)cc3)nc2c1 was tested. Which MIC (Bacillus subtilis) did it give?
The MIC was over 32 µg/mL.

And the MIC (Enterococcus faecium)?
Its MIC is 16 µg/mL (≈ 32.1 µM).

What about the MIC (Clostridium perfringens) of the same molecule?
Its MIC is 1 µg/mL (≈ 2.01 µM).

And the MIC (Bacteroides fragilis)?
The MIC was over 32 µg/mL.

And the MIC (Staphylococcus aureus [1])?
Its MIC is over 32 µg/mL.

What about the MIC (Streptococcus pneumoniae) of the same molecule?
The MIC was over 32 µg/mL.

And the MIC (Staphylococcus aureus [2])?
The MIC was over 32 µg/mL.

What about the MIC [3] of the same molecule?
Its MIC is 4 µg/mL (≈ 8.02 µM).

What about the MIC (Enterococcus faecalis) of the same molecule?
The MIC was over 32 µg/mL.

And the MIC (Bacillus cereus)?
Its MIC is 32 µg/mL (≈ 64.2 µM).

And the MIC [4]?
Its MIC is 8 µg/mL (≈ 16 µM).

And the MIC (Staphylococcus aureus [5])?
The MIC was over 32 µg/mL.

What does the source list for c1cc(-c2nc3cc(C4=NCCN4)ccc3[nH]2)ccc1CCc1ccc(-c2nc3cc(C4=NCCN4)ccc3[nH]2)cc1?
MIC (Bacillus subtilis): > 64 µg/mL; MIC (Enterococcus faecium): > 64 µg/mL; MIC (Clostridium perfringens): > 64 µg/mL; MIC (Bacteroides fragilis): > 64 µg/mL; MIC (Staphylococcus aureus [1]): > 64 µg/mL; MIC (Streptococcus pneumoniae): > 64 µg/mL; MIC (Staphylococcus aureus [2]): > 64 µg/mL; MIC [3]: > 64 µg/mL; MIC (Enterococcus faecalis): > 64 µg/mL; MIC (Bacillus cereus): > 64 µg/mL; MIC [4]: > 64 µg/mL; MIC (Staphylococcus aureus [5]): > 64 µg/mL

Which results are given for CCCCNC(=N)c1ccc2[nH]c(-c3ccc(CCc4ccc(-c5nc6cc(C(=N)NCCCC)ccc6[nH]5)cc4)cc3)nc2c1?
MIC (Bacillus subtilis): 1 µg/mL (≈ 1.64 µM); MIC (Enterococcus faecium): 2 µg/mL (≈ 3.27 µM); MIC (Clostridium perfringens): 0.5 µg/mL (≈ 0.819 µM); MIC (Bacteroides fragilis): 32 µg/mL (≈ 52.4 µM); MIC (Staphylococcus aureus [1]): 2 µg/mL (≈ 3.27 µM); MIC (Streptococcus pneumoniae): 1 µg/mL (≈ 1.64 µM); MIC (Staphylococcus aureus [2]): 4 µg/mL (≈ 6.55 µM); MIC [3]: 0.25 µg/mL (≈ 0.409 µM); MIC (Enterococcus faecalis): 32 µg/mL (≈ 52.4 µM); MIC (Bacillus cereus): 4 µg/mL (≈ 6.55 µM); MIC [4]: 0.5 µg/mL (≈ 0.819 µM); MIC (Staphylococcus aureus [5]): 4 µg/mL (≈ 6.55 µM)

For CC(C)NC(=N)c1ccc2[nH]c(-c3ccc(CCc4ccc(-c5nc6cc(C(=N)NC(C)C)ccc6[nH]5)nc4)cc3)nc2c1, which MIC (Bacillus subtilis) is on record?
Its MIC is 1 µg/mL (≈ 1.71 µM).

What about the MIC (Enterococcus faecium) of the same molecule?
Its MIC is 1 µg/mL (≈ 1.71 µM).

What about the MIC (Clostridium perfringens) of the same molecule?
The MIC was 8 µg/mL (≈ 13.7 µM).

What about the MIC (Bacteroides fragilis) of the same molecule?
Its MIC is 32 µg/mL (≈ 54.8 µM).

What about the MIC (Staphylococcus aureus [1]) of the same molecule?
The MIC was 4 µg/mL (≈ 6.85 µM).

And the MIC (Streptococcus pneumoniae)?
Its MIC is 0.12 µg/mL (≈ 0.206 µM).

What about the MIC (Staphylococcus aureus [2]) of the same molecule?
Its MIC is 8 µg/mL (≈ 13.7 µM).

And the MIC [3]?
The MIC was 0.25 µg/mL (≈ 0.428 µM).

And the MIC (Enterococcus faecalis)?
The MIC was 2 µg/mL (≈ 3.43 µM).

And the MIC (Bacillus cereus)?
The MIC was 0.5 µg/mL (≈ 0.857 µM).

What about the MIC [4] of the same molecule?
The MIC was 1 µg/mL (≈ 1.71 µM).

What about the MIC (Staphylococcus aureus [5]) of the same molecule?
Its MIC is 4 µg/mL (≈ 6.85 µM).

Which MIC (Bacillus subtilis) does the source give for CC(C)NC(=N)c1ccc2[nH]c(-c3ccc(CCc4cc(-c5nc6cc(C(=N)NC(C)C)ccc6[nH]5)cs4)cc3)nc2c1 here?
Its MIC is 0.5 µg/mL (≈ 0.849 µM).

And the MIC (Enterococcus faecium)?
The MIC was 0.25 µg/mL (≈ 0.425 µM).

And the MIC (Clostridium perfringens)?
Its MIC is 0.25 µg/mL (≈ 0.425 µM).

And the MIC (Bacteroides fragilis)?
Its MIC is 1 µg/mL (≈ 1.7 µM).

And the MIC (Staphylococcus aureus [1])?
The MIC was 0.25 µg/mL (≈ 0.425 µM).

And the MIC (Streptococcus pneumoniae)?
Its MIC is 0.12 µg/mL (≈ 0.204 µM).

What about the MIC (Staphylococcus aureus [2]) of the same molecule?
The MIC was 1 µg/mL (≈ 1.7 µM).

And the MIC (Enterococcus faecalis)?
Its MIC is 1 µg/mL (≈ 1.7 µM).

What about the MIC (Bacillus cereus) of the same molecule?
The MIC was 0.25 µg/mL (≈ 0.425 µM).

What about the MIC [4] of the same molecule?
The MIC was 0.25 µg/mL (≈ 0.425 µM).

What about the MIC (Staphylococcus aureus [5]) of the same molecule?
The MIC was 1 µg/mL (≈ 1.7 µM).

Which MIC (Bacillus subtilis) does the source give for N=C(N)c1ccc2[nH]c(-c3ccc(CCc4ccc(-c5nc6cc(C(=N)N)ccc6[nH]5)cc4)cc3)nc2c1 here?
Its MIC is 32 µg/mL (≈ 64.2 µM).

And the MIC (Enterococcus faecium)?
Its MIC is 32 µg/mL (≈ 64.2 µM).

And the MIC (Clostridium perfringens)?
Its MIC is over 32 µg/mL.

What about the MIC (Bacteroides fragilis) of the same molecule?
Its MIC is over 32 µg/mL.

And the MIC (Staphylococcus aureus [1])?
The MIC was over 32 µg/mL.

And the MIC (Streptococcus pneumoniae)?
Its MIC is over 32 µg/mL.

And the MIC (Staphylococcus aureus [2])?
The MIC was over 32 µg/mL.

And the MIC [3]?
The MIC was 4 µg/mL (≈ 8.02 µM).

And the MIC (Enterococcus faecalis)?
The MIC was over 32 µg/mL.

What about the MIC (Bacillus cereus) of the same molecule?
Its MIC is over 32 µg/mL.

And the MIC [4]?
The MIC was 32 µg/mL (≈ 64.2 µM).

What about the MIC (Staphylococcus aureus [5]) of the same molecule?
Its MIC is over 32 µg/mL.
